# Test results from patent US20210093730A1, “BIOMARKERS FOR ANTIBODY-DRUG CONJUGATE MONOTHERAPY OR COMBINATION THERAPY” (Immunomedics, Inc., priority 2019, published 2021).
# Values joined by “and” are separate entries in the source; they are usually repeats but may differ in a detail not shown here. Equal entries are not always repeated. “Also recorded” adds a separate entry of the source. Where two headings read alike, the source gives them in different places.
# Tests used:
# [1] = Immunogenicity: serum antibody responses to sacituzumab govitecan, the IgG and SN-38 by ELISA in mSCLC patients; type: in vivo, human; settings: up to 63 doses / up to 22 months of treatment
# Procedure: Positivity required at least 10% of the tumor cells to be stained, with an intensity scored as 1+ (weak), 2+ (moderate), and 3+ (strong). […] Assay sensitivity is 50 ng/mL for the ADC and the IgG, and 170 ng/mL for anti-SN-38 antibody.
# [2] = system: metastatic small-cell lung cancer; settings: cited from earlier work
# [3] = system: diverse metastatic solid cancers
# Source text: Patients were refractory/relapsed after standard treatment regimens for metastatic cancer.
# [4] = system: metastatic small-cell lung cancer
# Source text: Previous therapy had to be completed at least 4 weeks before enrollment.
# Treatment was continued until disease progression, initiation of alternative anticancer therapy, unacceptable toxicity, or withdrawal of consent.
# The primary endpoint was the proportion of patients with a confirmed objective response, assessed approximately every 8 weeks until disease progression, by each institution's radiology group or a contracted local radiology service. […] Partial (PR) or complete responses (CR) required confirmation within 4 to 6 weeks after the initial response. Clinical benefit rate (CBR) is defined as those patients with an objective response plus stable disease (SD)≥4 months. Survival was monitored every 3 months until death or withdrawal of consent.
# Safety evaluations were conducted during scheduled visits or more frequently if warranted.
# The frequency and severity of adverse events (AEs) were defined by MedDRA Preferred Term and System Organ Class (SOC) version 10, with severity assessed by NCI-CTCAE v4.03.
# The protocol provided that objective response rates (ORR) were determined for patients who received ≥2 doses (1 cycle) and had their initial 8-week CT assessment. Duration of response is defined in accordance to RECIST 1.1 criteria, with those having an objective response marked from time of the first evidence of response until progression, while stable disease duration is marked from the start of treatment until progression. PFS and OS were defined from the start of treatment until an objective assessment of progression was determined (PFS) or death (OS).
# [5] = 48 assessable pts excluding PDC
# [6] = esophageal cancer, 4 assessable patients
# [7] = SG given as >3 line, no prior topotecan/irinotecan (N = 9)
# [8] = SG given as >3 line, prior topotecan/irinotecan (N = 15)
# [9] = patients resistant (N = 19) to 1st line
# [10] = patients sensitive (N = 24) to 1st line
substance,measurement,setting,value
sacituzumab govitecan,"immunogenicity (antibodies to sacituzumab govitecan, hRS7 antibody or SN-38)",[1],not immunogenic; also recorded: No neutralizing antibodies
same,ORR,"[2]; 53 mSCLC patients (Gray et al., 2017)",14%
same,median OS,"[2]; Gray et al., 2017",7.5 months
same,median PFS,"[2]; Gray et al., 2017",3.7 months
same,median response duration,"[2]; Gray et al., 2017",5.7 months
same,patients with tumor shrinkage from baseline,"[2]; Gray et al., 2017",Sixty
same,"partial response (PR), % of patients",[3]; [5],15%
same,"stable disease (SD), % of patients",[3]; [5],56%
same,"disease response, % of patients","[3]; 48 assessable pts excluding PDC, printed 38 pts",79%
same,maximum reduction in target lesions,"[3]; CRC case, after 10 months of treatment",65%
same,CEA after treatment,"[3]; CRC case, decrease from 781 ng/mL",26.5 ng/mL
same,reduction in target lesions at first CT assessment,"[3]; CRC case, starting dose 8 mg/kg",37%
same,total response [PR+SD],"[3]; CRC, 12/18",67%
same,"PD, patients","[3]; CRC, 18 assessable patients",6 patients
same,"PR, patients","[3]; CRC, 18 assessable patients",1 patients
same,primary target lesion size at first CT,"[3]; NSCLC case, 5.6 cm at start, after 6th dose",3.2 cm
same,total response [PR+SD],"[3]; NSCLC, 4/5",80%
same,"PD, patients","[3]; NSCLC, 5 assessable patients",1 patients
same,"PR, patients","[3]; NSCLC, 5 assessable patients",1 patients
same,reduction in target lesions,"[3]; SCLC case, 12 mg/kg reduced to 6.8 mg/kg, after two months",38%
same,total response [PR+SD],"[3]; SCLC, 2/4",50%
same,"PD, patients","[3]; SCLC, 4 assessable patients",2 patients
same,"PR, patients","[3]; SCLC, 4 assessable patients",2 patients
same,total response [PR+SD],"[3]; TNBC, 6/8",75%
same,"PD (progressive disease), patients","[3]; TNBC, 8 assessable patients",2 patients
same,"PR (partial response), patients","[3]; TNBC, 8 assessable patients",2 patients
same,total response [PR+SD],"[3]; all, 34/48",71%
same,"PD, patients","[3]; all, 48 assessable patients",14 patients
same,"PR, patients","[3]; all, 48 assessable patients",Seven
same,"PR, patients","[3]; all, 48 assessable patients, listed as hRS7-SN-38",7 patients
same,total response [PR+SD],"[3]; esophageal cancer, 3/4",75%
same,"PD, patients",[3]; [6],1 patients
same,"PR, patients",[3]; [6],1 patients
same,"Abdominal pain, Grade 3",[3]; in vivo,0
same,"Abdominal pain, Grade 4",[3]; in vivo,0
same,"Abdominal pain, TOTAL",[3]; in vivo,11%
same,"Alopecia, TOTAL",[3]; in vivo,40%
same,"Anemia, Grade 4",[3]; in vivo,0
same,"Anemia, TOTAL",[3]; in vivo,13%
same,"Deep vein thrombosis, Grade 3",[3]; in vivo,1 (2%)
same,"Deep vein thrombosis, Grade 4",[3]; in vivo,0
same,"Deep vein thrombosis, TOTAL",[3]; in vivo,2%
same,"Diarrhea, Grade 4",[3]; in vivo,0
same,"Diarrhea, TOTAL",[3]; in vivo,47%
same,"Dysgeusia, Grade 3",[3]; in vivo,0
same,"Dysgeusia, Grade 4",[3]; in vivo,0
same,"Dysgeusia, TOTAL",[3]; in vivo,15%
same,"Fatigue, Grade 4",[3]; in vivo,0
same,"Fatigue, TOTAL",[3]; in vivo,55%
same,"Hypokalemia, Grade 3",[3]; in vivo,1 (2%)
same,"Hypokalemia, Grade 4",[3]; in vivo,0
same,"Hypokalemia, TOTAL",[3]; in vivo,11%
same,"Nausea, Grade 4",[3]; in vivo,0
same,"Nausea, TOTAL",[3]; in vivo,53%
same,"Neutropenia, TOTAL",[3]; in vivo,43%
same,"Pyrexia, Grade 3",[3]; in vivo,0
same,"Pyrexia, Grade 4",[3]; in vivo,0
same,"Pyrexia, TOTAL",[3]; in vivo,13%
same,"Vomiting, Grade 4",[3]; in vivo,0
same,"Vomiting, TOTAL",[3]; in vivo,32%
same,"WBC Decrease, Grade 3",[3]; in vivo,1 (2%)
same,"WBC Decrease, Grade 4",[3]; in vivo,0
same,"WBC Decrease, TOTAL",[3]; in vivo,6%
same,alopecia,[3]; in vivo,40%
same,"anemia, grade 3",[3]; in vivo,2 (4%)
same,anti-hRS7 or anti-SN-38 antibodies,[3]; in vivo,No anti-hRS7 or anti-SN-38 antibodies were detected
same,diarrhea,[3]; in vivo,47%
same,diarrhea >=G3,[3]; in vivo,9%
same,"diarrhea, grade 3",[3]; in vivo,4 (9%)
same,fatigue,[3]; in vivo,55%
same,fatigue >=G3,[3]; in vivo,9%
same,"fatigue, grade 3",[3]; in vivo,4 (9%)
same,nausea,[3]; in vivo,53%
same,nausea >=G3,[3]; in vivo,0%
same,"nausea, grade 3",[3]; in vivo,0
same,neutropenia >=G3,[3]; in vivo,28%
same,neutropenia G4,[3]; in vivo,4%
same,"neutropenia, grade 3",[3]; in vivo,11 (24%)
same,"neutropenia, grade 4",[3]; in vivo,2 (4%)
same,vomiting,[3]; in vivo,32%
same,vomiting >=G3,[3]; in vivo,2%
same,"vomiting, grade 3",[3]; in vivo,1 (2%)
same,"median time to progression (TTP), PDC pts","[3]; pancreatic cancer, 8 wks in last prior therapy",12.7 wks and 11.9 wks
same,"TTP, remaining 48 pts",[3]; range 6.0 to 51.4 wks,≥ 12.6 wks
same,confirmed PR,[4]; 19 patients resistant to first-line platinum,16%
same,confirmed PR,[4]; 24 patients sensitive to first-line platinum,17%
same,"PD, %",[4]; 43 assessable patients,(35%)
same,stable disease including unconfirmed PR,[4]; 43 assessable patients (21 patients),49%
same,treatment-related deaths,[4]; 53 patients,No treatment-related deaths were observed
same,"OS, seven confirmed PR patients","[4]; 95% CI 6.2, 20.9",9.2 months
same,"OS, ten patients with SD >=4 months","[4]; 95% CI 7.5, 22.4",8.3 months
same,"median PFS, confirmed PR group","[4]; 95% CI 7.6, 21.9",7.9 months
same,"Duration of confirmed objective response, median","[4]; Kaplan-Meier, 95% CI 3.6, 19.9",5.7 months
same,"Clinical benefit rate (PR + SD >= 4 months), %",[4]; SG as >=3 line (N = 24),(38%)
same,OS median,[4]; SG as >=3 line (N = 24),7.0 months
same,PFS median,[4]; SG as >=3 line (N = 24),3.7 months
same,"Clinical benefit rate (PR + SD >= 4 months), %",[4]; SG as second line (N = 19),(37%)
same,OS median,[4]; SG as second line (N = 19),8.1 months
same,PFS median,[4]; SG as second line (N = 19),3.6 months
same,"Clinical benefit rate (PR + SD >= 4 months), %",[4]; [7],(33%)
same,OS median,[4]; [7],5.5 months
same,PFS median,[4]; [7],3.7 months
same,"Clinical benefit rate (PR + SD >= 4 months), %",[4]; [8],(40%)
same,OS median,[4]; [8],8.8 months
same,PFS median,[4]; [8],3.8 months and 3.6 months
same,grade 3 or 4 anemia,"[4]; human, in vivo",8%
same,grade 3 or 4 diarrhea,"[4]; human, in vivo",9%
same,grade 3 or 4 fatigue,"[4]; human, in vivo",13%
same,grade 3 or 4 hyponatremia,"[4]; human, in vivo",8%
same,grade 3 or 4 increased alkaline phosphatase,"[4]; human, in vivo",8%
same,grade 3 or 4 neutropenia,"[4]; human, in vivo",34%
same,infusion-related reactions,"[4]; human, in vivo",No infusion-related reactions were reported
same,patients with dose reduction,"[4]; human, in vivo",13%
same,"Overall survival, median",[4]; intention-to-treat N = 53,7.0 months
same,"Progression-free survival, median",[4]; intention-to-treat N = 53,3.6 months
same,"duration of SD, patient with 17% tumor shrinkage",[4]; one patient with prior CPI,8.7 months
same,"duration of SD, patient with no change in tumor size",[4]; one patient with prior CPI,3.7 months
same,"tumor shrinkage, patient with SD",[4]; one patient with prior CPI,17%
same,"tumor shrinkage on first assessment, patient with unconfirmed PR",[4]; one patient with prior checkpoint inhibitor (CPI),54%
same,"Clinical benefit rate (PR + SD >= 4 months), %",[4]; [9],(26%)
same,OS median,[4]; [9],6.2 months
same,PFS median,[4]; [9],3.6 months
same,"Clinical benefit rate (PR + SD >= 4 months), %",[4]; [10],(50%)
same,OS median,[4]; [10],8.3 months
same,PFS median,[4]; [10],3.8 months
same,PR,[4]; second-line setting (3/19),16%
same,median time to response,"[4]; seven confirmed PR, range 1.8 to 3.6",2.0 months
same,confirmed PR,"[4]; starting dose 8 mg/kg, 13 patients",8%
same,CBR,[4]; starting dose 10 mg/kg (14/30),47%
same,confirmed PR,[4]; starting dose 10 mg/kg (N = 30),20%
same,Kaplan-Meier-derived median duration of SD,"[4]; ten patients with SD >=4 months, 95% CI 5.2, 9.7",5.6 months
same,confirmed PR,[4]; third or higher line (N = 24),16%
